Structures are written as SMILES. Converted amounts (≈) assume the structure as drawn.

One experiment has as its system Rhizopus oryzae. Description: microbe, parasite or virus in culture. As to conditions: Rhizopus arrhizus; MIC/MEC. On the set-up: species or system Aspergillus fumigatus and other molds; modified CLSI M38-A2 broth microdilution in RPMI 1640, mold growth inhibition (MIC/MEC). Here is the method: (§1) In vitro antifungal activities of FK506, FK520, and analogs were assessed in RPMI 1640 (Sigma-Aldrich) for all strains tested. MICs/minimum effective concentrations (MECs) for each drug were measured using modified Clinical and Laboratory Standards Institute (CLSI) M38-A2 and M27-A3 standard in vitro antifungal susceptibility protocols. Broth microdilution assays for MIC/MEC assessment were performed as described previously ([33]). All antifungal assays with C. neoformans were performed at 37°C. Antifungal susceptibility testing for C. albicans was performed in the presence of a uniform 1 μg/mL concentration of fluconazole to sensitize the organism to calcineurin inhibition. MICs/minimum effective concentrations (MECs) were determined for each of the novel analogs against the three major human fungal pathogens, A. fumigatus, C. neoformans, and C. albicans. […] Thus, analogs of FK506 and FK520 can tolerate up to 100-fold reduction in antifungal activity and still be considered for in vivo testing. For C. neoformans, MICs were the most uniform and ranged from 0.2 to 2 μg/mL, which is between 4- and 40-fold reduced for antifungal activity. C. albicans MICs ranged from 0.2 to 6.25 μg/mL, which is between 10- and 312.5-fold reduced for activity. Despite being one of the most difficult to treat fungal infections, all six analogs were active against A. fumigatus with MECs ranging from 1 to 2 μg/mL or a 62.5- to 125-fold reduction in activity. Two FK520 analogs, JH-FK-05 and JH-FK-07, maintained high levels of broad-spectrum antifungal activity across the three species, and JH-FK-07 had the lowest MICs for both C. neoformans and C. albicans. To assess the antifungal activity against other human fungal pathogens, we selected JH-FK-05 to test against a panel of pathogenic molds and drug-resistant A. fumigatus strains (Table S3). JH-FK-05 registered MECs as low as 1 μg/mL for some of these highly recalcitrant species, such as Mucor circinelloides, Rhizopus oryzae, and pan azole-resistant A. fumigatus (strain F14946).

Experiment [1] concerns T1, Aspergillus fumigatus (Wild-type) (akuBKu80).
T1 construct: akuBKu80
Put plainly: microbe, parasite or virus in culture. On the set-up: species or system Aspergillus fumigatus and other molds; modified CLSI M38-A2 broth microdilution in RPMI 1640, mold growth inhibition (MIC/MEC). As to conditions: MIC/MEC. Here is the method:
as §1

The test system of another experiment is Scedosporium prolificans. Put plainly: microbe, parasite or virus in culture. As to conditions: Lomentospora prolificans; MIC/MEC. On the set-up: species or system Aspergillus fumigatus and other molds; modified CLSI M38-A2 broth microdilution in RPMI 1640, mold growth inhibition (MIC/MEC). Here is the method:
as §1

The test system of another experiment is Rhizomucor pusilus. Description: microbe, parasite or virus in culture. More on the design: species or system Aspergillus fumigatus and other molds; modified CLSI M38-A2 broth microdilution in RPMI 1640, mold growth inhibition (MIC/MEC). As to conditions: Rhizomucor; MIC/MEC. Here is the method:
as §1

The subject of experiment [2] is T2, Aspergillus fumigatus F16216.
T2 construct: F16216
Put plainly: microbe, parasite or virus in culture. To be noted: F16216, MIC/MEC, azole-resistant strain. On the set-up: species or system Aspergillus fumigatus and other molds; modified CLSI M38-A2 broth microdilution in RPMI 1640, mold growth inhibition (MIC/MEC). Here is the method:
as §1

Experiment [3] relates to T3, Aspergillus fumigatus F16314.
T3 construct: F16314
Put plainly: microbe, parasite or virus in culture. On the set-up: species or system Aspergillus fumigatus and other molds; modified CLSI M38-A2 broth microdilution in RPMI 1640, mold growth inhibition (MIC/MEC). To be noted: F16314, MIC/MEC, azole-resistant strain. Here is the method: as §1

The next experiment deals with Mucor circinelloides. Description: microbe, parasite or virus in culture. More on the design: species or system Aspergillus fumigatus and other molds; modified CLSI M38-A2 broth microdilution in RPMI 1640, mold growth inhibition (MIC/MEC). To be noted: Mucor circinelloides; MIC/MEC. Here is the method:
as §1

In experiment [4] the test system is T4, Aspergillus fumigatus F12776.
T4 construct: F12776
Put plainly: microbe, parasite or virus in culture. As to conditions: F12776, MIC/MEC, azole-resistant strain. On the set-up: species or system Aspergillus fumigatus and other molds; modified CLSI M38-A2 broth microdilution in RPMI 1640, mold growth inhibition (MIC/MEC). Here is the method:
as §1

The next experiment deals with T5, FKBP12 (Candida albicans, UniProt C4YFI3+C4YS24+P28870).
T5 construct: gene RBP1; biotinylated (Avi-tagged) FKBP12; with CnA-CnB-calmodulin
T5 sequence (P28870 whole entry): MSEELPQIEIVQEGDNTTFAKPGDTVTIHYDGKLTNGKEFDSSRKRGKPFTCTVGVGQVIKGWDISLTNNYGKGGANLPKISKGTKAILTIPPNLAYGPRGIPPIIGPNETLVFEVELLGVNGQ
T5 sequence (C4YFI3 54-445): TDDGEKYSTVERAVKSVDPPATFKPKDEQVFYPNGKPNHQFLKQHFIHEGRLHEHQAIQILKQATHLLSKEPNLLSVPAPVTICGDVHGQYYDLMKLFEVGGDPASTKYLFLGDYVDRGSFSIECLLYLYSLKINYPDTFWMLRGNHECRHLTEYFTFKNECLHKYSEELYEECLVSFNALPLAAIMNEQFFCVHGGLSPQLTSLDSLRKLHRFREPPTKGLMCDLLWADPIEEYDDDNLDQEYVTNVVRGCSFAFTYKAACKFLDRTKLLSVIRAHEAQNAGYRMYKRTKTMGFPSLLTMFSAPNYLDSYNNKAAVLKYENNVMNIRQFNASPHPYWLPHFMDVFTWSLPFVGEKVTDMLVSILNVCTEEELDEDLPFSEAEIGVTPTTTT
T5 sequence (C4YS24 1-173): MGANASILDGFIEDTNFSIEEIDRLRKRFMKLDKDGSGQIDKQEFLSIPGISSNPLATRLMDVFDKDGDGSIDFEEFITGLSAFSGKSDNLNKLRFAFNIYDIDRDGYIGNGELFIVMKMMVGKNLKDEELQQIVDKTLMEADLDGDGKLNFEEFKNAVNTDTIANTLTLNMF
T5 sequence (P23286 whole entry partner): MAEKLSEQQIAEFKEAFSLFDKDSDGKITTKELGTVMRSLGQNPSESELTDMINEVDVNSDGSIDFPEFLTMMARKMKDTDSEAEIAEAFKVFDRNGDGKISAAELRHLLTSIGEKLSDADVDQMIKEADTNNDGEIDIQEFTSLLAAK
Put plainly: BLI, compound-mediated ternary complex formation, […] compound. The experiment is classed as binding.

Turning to `CC[C@@H]1/C=C(\C)C[C@H](C)C[C@H](OC)[C@H]2O[C@@](O)(C(=O)C(=O)N3CCCC[C@H]3C(=O)O[C@H](/C(C)=C/[C@@H]3CC[C@@H](O)[C@H](OC)C3)[C@H](C)[C@@H](O)C/C1=N/NC(C)=O)[C@H](C)C[C@@H]2OC` [JH-FK-05], the MIC is 1 µg/mL (≈ 1.18 µM) against Rhizopus oryzae; 1 µg/mL (≈ 1.18 µM) in experiment [1]; above 8 µg/mL with Scedosporium prolificans; above 8 µg/mL against Rhizomucor pusilus; 1 µg/mL (≈ 1.18 µM) in experiment [2]; 1 µg/mL (≈ 1.18 µM) in experiment [3]. Moreover, the MIC with Mucor circinelloides was found to be 1 µg/mL (≈ 1.18 µM); in [4], 2 µg/mL (≈ 2.36 µM). In addition, the “BLI, compound-mediated ternary complex formation, 10 μM compound” value on FKBP12 is “target complexes form in the presence of the analogs with affinities similar to those of the parent compounds”.

The record behind these values is article PMC9239059, “Structure-Guided Synthesis of FK506 and FK520 Analogs with Increased Selectivity Exhibit In Vivo Therapeutic Efficacy against Cryptococcus” (mBio, 2022).
